Test results reported in US8618074B2, “GPCR enhanced neuroprotection to treat brain injury” (Board of Regents of the University of Texas System, priority 2007, dated 2013).

Assays:
Mouse cortical neurons = assay: Neuronal survival in transwell co-culture with astrocytes under t-buOOH oxidative stress (Hoechst/calcein); format: cell-based
Procedure: (§1) Primary cultures of astrocytes were prepared as previously published (Lin et al., 2005). C57BL/6 male mice were purchased from the National Institute of Aging and maintained in standard accredited housing conditions at the University of Texas Health Science Center Animal Facility. Animal protocols were approved by our Institutional Animal Care Use Committee. Astrocytes were cultured in DMEM F-12 media (Invitrogen, # 11039-021) supplemented with 2 mM glutamine, nonessential amino acids, 10% fetal calf serum, 100 U/ml penicillin/streptomycin (Cambrex BioScience Walkersville, #17-602E) and 1% fungizone (Invitrogen, #15290-018) at 37° C. in an atmosphere containing 5% CO2. The culture medium was changed every 3-5 days. Confluent cells were gently removed by a trypsin EDTA solution and re-plated on 35 mm glass bottom chambers (Bioptechs #04200415C) prior to imaging experiments 3-4 days later. Cells were maintained in plastic culture flasks until the final re-seeding of cells onto a glass bottom chamber and were passed up to 3 times for astrocyte only experiments. For co-culture experiments with neurons, primary astrocytes were plated directly onto corning transwell-clear permeable supports, which physically separates the two cell-types by ˜1 mm (# 07-200-170, Fisher scientific). Astrocytes were cultured in transwells until they were ˜70% confluent. Mouse cortical neurons (Cambrex Bio Science Walkersville Inc., # M-CX-300) were then cultured onto 6 well mat-tek glass bottom plates and maintained in Neurobasal Medium (Invitrogen, # 21103-049), 2 mM L-Glutamine (Cambrex BioScience Walkersville, #17-605E), 100 U/ml penicillin/streptomycin (Cambrex BioScience Walkersville, #17-602E) and B-27 with (Invitrogen, #17504-044) and without antioxidants (Invitrogen, #10889-038), which controls glia contamination to less than 0.5%. The transwell supports with cultured astrocytes were placed in the neuron seeded glass bottom chambers for four days before imaging and both cell types were then maintained in neuronal media. For neuron only experiments, the astrocytes on the transwell supports were removed prior to treatments and imaging.
(§2) Sensitivity of neurons to oxidative stress was assessed by treating cultures with 100 μM tert-butyl hydrogen peroxide (t-BuOOH, Sigma, #B-2633) for 3 hours. Neurons were then stained with Hoechst 33342 (10 μg/ml, Molecular Probes, #H-3570) to label all cell nuclei and calcein AM (2 μM, #C3100, Molecular Probes, #C3100). […] Calcein fluorescence is only observed in live cells that have maintained their plasma membrane integrity. Images were acquired on an inverted Nikon TE300 microscope with a Hamamatsu ORCAER camera and Open lab software (Improvision).
To determine whether P2Y-R enhanced mitochondrial metabolism in astrocytes affected neuronal resistance to oxidative stress, we prepared co-cultures of neurons and astrocytes using corning transwell-clear permeable supports, which physically separates the two cell-types by ˜1 mm (# 07-200-170, Fisher scientific). Primary cultures of astrocytes were directly prepared in transwell supports until they were ˜70% confluent. Mouse cortical neurons were then cultured onto glass bottom mattek plates and maintained in B-27/Neurobasal Medium to control glia contamination to less than 0.5% (Invitrogen). After four days, co-cultures were treated with t-buOOH (100 μM) for 4 hours with and without pre-stimulation of ATP (2 μM, 10 minutes). Cells were then stained with the DNA intercalating dye Hoechst 33342 (10 μg/ml, Molecular Probes, #H-3570) and calcein AM (2 μM, Molecular Probes, #C3100). […] We then tested the neuroprotective affects of isoform specific purinergic ligands 2-MeSADP(P2Y1-R) and UTP(P2Y2-R). FIG. 6A depicts histogram plots of the percentage of neurons alive when cocultured with young or old astrocytes. FIG. 6B depicts histogram plots of the percentage of neurons alive pretreated with either 2-MeSADP (2 μM) or UTP (50 μM) for 10 min. […]

[1] = system: Neurons in the absence of astrocytes; assay: Neuronal survival under t-buOOH in the absence of astrocytes (transwells removed before ligand treatment); format: cell-based, mouse
Procedure: as §1, §2
Activation of neuronal P2X receptors has been reported neurotoxic. Consequently, we further examined the affects of P2Y-R activation on neuronal survival in the absence of astrocytes. Neurons were co-cultured with astrocytes in transwell dishes that were removed from the cultures just prior to treating the neurons with purinergic ligands. Neurons in the absence of astrocytes were then exposed to t-buOOH (100 μM, 4.5 hours with normal B-27, 3 hours with antioxidant-free B-27) and cell viability was assessed by the ability of neurons to retain calcien. […] The same results were found for neurons initially co-cultured with old astrocytes. […]

astrocytes = assay: O2 consumption assay (Clark electrode respirometry); format: cell-based, mouse
Procedure: O2 consumption was monitored with a Clark electrode (Mitocell S200 micro respirometry system; Strathkelvin Instruments). Astrocytes (500 μl at 10^5 cells/ml) were loaded into a 500 μl MT200A Respirometer Chamber, suspended by a fixed-speed solid-state magnetic stirrer inside the chamber and maintained at 37° C. by a circulating water bath. O2 was monitored for 4 minutes before injecting 5 μl of ATP (200 μM) into the chamber. O2 consumption was then monitored for another 4 minutes. Changes in O2 levels were calculated by respirometry software. For control recordings, 5 μl of buffer was injected into chamber. Oligomycin astrocytes were treated with oligomycin (0.01 μM) for 30 minutes before trypsinization and loading into chamber.
To further investigate the importance of mitochondrial metabolism on the protective effect of P2Y-R activation, we first measured the rate of O2 consumption for astrocytes with and without P2Y-R activation. Primary cultures of astrocytes were grown to ˜70% confluency, gently removed by trypsin EDTA and resuspended in PBS buffer. Astrocytes (10^5 cells/ml) were then loaded into a 500 μl Respirometer Chamber MT200A) and maintained at 37° C. by a circulating water bath. FIG. 5A depicts plots of O2 levels in suspended astrocytes as labeled. FIG. 5B depicts a histogram showing the average change in O2 consumption with 2 μM ATP compared to untreated cells (control). Bars on the right show O2 consumption of Astrocytes are preloaded 0.01 uM Oligomycin (30 minutes).

[2] = neurons initially co-cultured with old astrocytes, astrocytes removed, t-buOOH 100 μM
[3] = neurons without astrocytes, normal B-27, t-buOOH 100 μM 4.5 hours

SMILES	% neurons alive (neuronal survival) (Mouse cortical neurons; anti-oxidant-free B-27, 2-MeSADP 2 μM 10 minutes, t-buOOH 100 μM 3 hours) [%]	% neurons alive (Mouse cortical neurons; co-cultures, 10 min pre-treatment 2-MeSADP 2 μM or UTP 50 μM, 4.5 hours of t-buOOH) [%]	% neurons alive [1, 2] [%]	% neurons alive [1, 3] [%]	rate of O2 consumption (astrocytes; bolus of ATP, 2 μM final concentration) [nmol/min]	neuronal survival (Mouse cortical neurons; co-cultured with old astrocytes, ATP 2 μM 10 minutes pre-stimulation, t-buOOH 100 μM 4 hours) [%]	neuronal survival (Mouse cortical neurons; co-cultured with young astrocytes, ATP 2 μM 10 minutes pre-stimulation, t-buOOH 100 μM 4 hours) [%]	% neurons alive ([1]; neurons without astrocytes, anti-oxidant-free B-27, t-buOOH 100 μM 3 hours) [%]	rate of O2 consumption (astrocytes; oligomycin 0.01 μM 30 minutes + extracellular ATP) [nmol/min]	rate of O2 consumption (astrocytes; oligomycin 0.01 μM, 30 minutes) [nmol/min]	neuronal survival (Mouse cortical neurons; anti-oxidant-free B-27, oligomycin 0.01 μM 30 minutes + 2-MeSADP, t-buOOH 3 hours) [%]	neuronal survival (Mouse cortical neurons; anti-oxidant-free B-27, oligomycin 0.01 μM 30 minutes, t-buOOH 3 hours) [%]
CSc1nc(N)c2ncn([C@@H]3O[C@H](COP(=O)(O)OP(=O)(O)O)[C@@H](O)[C@H]3O)c2n1 [2-MeSADP]	43±3	70±2	72±3	74±3	–	–	–	–	–	–	–	–
Nc1ncnc2c1ncn2[C@@H]1O[C@H](COP(=O)(O)OP(=O)(O)OP(=O)(O)O)[C@@H](O)[C@H]1O [ATP]	–	–	49±6	56±7	3.67 ± 0.3	87±2	87±2	18±2	–	–	–	–
CC[C@H]1/C=C/C=C/C[C@@H](C)[C@H](O)[C@@](C)(O)C(=O)[C@@H](C)[C@H](O)[C@@H](C)C(=O)[C@@H](C)[C@H](O)[C@@H](C)/C=C/C(=O)O[C@@H]2[C@H](C)[C@H](CC1)O[C@]1(CC[C@H](C)[C@H](C[C@@H](C)O)O1)[C@H]2C [oligomycin]	–	–	–	–	–	–	–	–	1.19 ± 0.27	0.97 ± 0.21	26±3	25±3
